Assay results as given in US12582727B2, “Chemiluminescent and fluorescent nanoparticle for optical imaging of cancer” (priority 2018, dated 2026).

How the values were obtained:
[1] = tested on: NOK (Normal oral keratinocyte); assay: Cellular uptake, NOK cells (FRα-negative); format: cell-based; conditions: 1 and 3 hours of incubation, comparison among samples
Protocol: The cell internalization of CNPs was characterized by a fluorescence microscopy. As shown in FIGS. 14A and 14B, the CNPs quickly enter into NOK and MOC2 cells. […] Through the cellular uptake study, it was confirmed that CNPs efficiently enter into the cells within 1 hour.
To evaluate the cellular uptake, NOK (Normal oral keratinocyte) and MOC2 (immunogenic murine squamous cell carcinoma) cells were used as folate receptor alpha (FRα)-negative and -positive cells, respectively (FIGS. 15A and 15B).
For visualization of the cellular uptake, the NOK and MOC2 cells in each well were treated with free-Ce6, GCCe6, FA-GCCe6, CNP and FA-CNP and then subjected to DAPI staining. […] The fluorescence images matched to the corresponding data in FIGS. 15A and 15B. The enhancement of the cellular uptake is attributed to the presence of FA facilitating receptor-mediated endocytosis.

[2] = tested on: liver, lungs, kidney, heart, and spleen; assay: Histology (H&E) of internal organs for toxicity; format: in vivo; conditions: compared to control (non-treated) group, 2 days post-intravenous injection
Protocol: After euthanizing mice with carbon dioxide gas, the internal organs (liver, kidney, spleen, heart, and lung) and tumor tissue were extracted and photographed using IVIS imaging. In addition, tumor tissues were excised from the mice at 2 days post-intravenous injection of free-Ce6, GCCe6, FA-GCCe6, CNP and FA-CNP (0.1 mL equivalent Ce6 concentration of 1.34×10^−5 mol/kg body weight) fixed with 10% Neutral Buffered Formalin solution, and embedded in paraffin, followed by sectioning. The sliced internal organs (5 μm in thickness) were stained with hematoxylin and eosin (H&E) and observed under an optical microscope. In addition, sliced tumor tissues were determined their FL and CL imaging under a confocal laser scanning microscope (Zeusis Nikon, Tokyo, Japan).

chlorin e6 [free-Ce6]
cellular uptake amount [1]: no significant difference | toxicity in H&E stained internal organs [2]: no significant cellular toxicity
